The results in this text go back to patent US6620828B2, “Thiazole compounds and pharmaceutical compositions for inhibiting protein kinases and methods for their use” (Agouron Pharmaceuticals, Inc., priority 1999, dated 2003).

Holding throughout (assay type): biochemical
In experiment [1] the target is T1, FL-CHK1 (Homo sapiens, UniProt O14757).
T1 construct: C-terminally His-tagged full-length human CHK1 (FL-CHK1); 6xHis (C); made in house; host or cells: baculovirus/insect cells
T1 sequence (O14757 1-476): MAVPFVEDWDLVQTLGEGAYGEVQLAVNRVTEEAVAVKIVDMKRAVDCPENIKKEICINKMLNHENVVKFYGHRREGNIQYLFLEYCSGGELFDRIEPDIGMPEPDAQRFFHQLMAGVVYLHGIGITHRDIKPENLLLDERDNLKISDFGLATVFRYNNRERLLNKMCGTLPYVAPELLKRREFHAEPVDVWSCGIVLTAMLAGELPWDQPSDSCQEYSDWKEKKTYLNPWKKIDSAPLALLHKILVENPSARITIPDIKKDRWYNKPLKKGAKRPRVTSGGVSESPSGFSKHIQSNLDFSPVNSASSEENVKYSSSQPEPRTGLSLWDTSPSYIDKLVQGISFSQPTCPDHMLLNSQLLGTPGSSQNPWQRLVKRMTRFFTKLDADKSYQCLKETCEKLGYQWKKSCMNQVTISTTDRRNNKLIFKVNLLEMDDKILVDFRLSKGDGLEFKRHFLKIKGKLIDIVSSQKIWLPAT
Briefly: CHK1 assay. The arrangement: CHK1^b: unit not given here. The settings on record: for CHK1^b: Table A combinatorial examples, footnote b not given. From the text:
CHK-1 Construct for Assay: C-terminally His-tagged full-length human CHK1 (FL-CHK1) was expressed using the baculovirus/insect cell system. It contains 6 histidine residues (6×His-tag) at the C-terminus of the 476 amino acid human CHK1. The protein was purified by conventional chromatographic techniques.
The production of ADP from ATP that accompanies phosphoryl transfer to the synthetic substrate peptide Syntide-2 ([…]) was coupled to oxidation of NADH using phosphoenolpyruvate (PEP) through the actions of pyruvate kinase (PK) and lactic dehydrogenase (LDH). The oxidation of NADH was monitored by following the decrease of absorbance at 340 nm (ε340=6.22 cm^−1 mM^−1) using a HP8452 spectrophotometer. Typical reaction solutions contained: […]; 0.15 mM NADH; 28 units of LDH/ml; 16 units of PK/ml; 3 mM DTT; 0.125 mM Syntide-2; 0.15 mM ATP; 25 mM MgCl2 in 50 mM TRIS, pH 7.5; and 400 mM NaCl. Assays were initiated with 10 nM of FL-CHK1. Ki values were determined by measuring initial enzyme activity in the presence of varying concentrations of test compounds. The data were analyzed using Enzyme Kinetic and Kaleidagraph software.

Experiment [2] concerns the target CDK2/Cyclin A complex (Homo sapiens, UniProt P24941). Briefly: CDK2/Cyclin A assay. Also on record: CDK2^c: concentration or dose not given beside the values. The following applies: for CDK2^c: Table A combinatorial examples, footnote c not given. From the text: CDK2/Cyclin A Construct for Assay: CDK2 was purified using published methodology (Rosenblatt et al., J. Mol. Biol., 230, 1317-1319 (1993)) from insect cells that had been infected with a baculovirus expression vector. Cyclin A was purified from E. coli cells expressing full-length recombinant cyclin A, and a truncated cyclin A construct was generated by limited proteolysis and purified as described previously (Jeffrey et al., Nature, 376, 313-320 (Jul. 27, 1995)).
CDK2/Cyclin A and CDK4/Cyclin D Assays
Cyclin-dependent kinase activity was measured by quantifying the enzyme-catalyzed, time-dependent incorporation of radioactive phosphate from [^32P]ATP into a recombinant fragment of the retinoblastoma protein. Unless noted otherwise, assays were performed in 96-well plates in a total volume of 50 μL, in the presence of 10 mM HEPES (N-[2-hydroxyethyl]piperazine-N′-[2-ethanesulfonic acid]) (pH 7.4), 10 mM MgCl2, 25 μM adenosine triphosphate (ATP), 1 mg/mL ovalbumin, 5 μg/mL leupeptin, 1 mM dithiothreitol, 10 mM β-glycerophosphate, 0.1 mM sodium vanadate, 1 mM sodium fluoride, 2.5 mM ethylene glycol-bis(β-aminoethyl ether)-N,N,N′N′-tetraacetic acid (EGTA), 2% (v/v) dimethylsulfoxide, and 0.03-0.2 μCi [^32P]ATP. The substrate (0.3-0.5 μg) was purified recombinant retinoblastoma protein fragment (Rb) (residues 386-928 of the native retinoblastoma protein; 62.3 kDa, containing the majority of the phosphorylation sites found in the native 106-kDa protein, as well as a tag of six histidine residues for ease of purification). Reactions were initiated with CDK2 (150 nM CDK2/Cyclin A complex) or CDK4 (50 nM CDK4/Cyclin D3 complex), incubated at 30° C., and terminated after 20 minutes by the addition of ethylenediaminetetraacetic acid EDTA) to 250 mM. The phosphorylated substrate was then captured on a nitrocellulose membrane using a 96-well filtration manifold, and unincorporated radioactivity was removed by repeated washing with 0.85% phosphoric acid. Radioactivity was quantified by exposing the dried nitrocellulose membranes to a phosphorimager. Apparent Ki values were measured by assaying enzyme activity in the presence of different compound concentrations and subtracting the background radioactivity measured in the absence of enzyme. The kinetic parameters (kcat, Km for ATP) were measured for each enzyme under the usual assay conditions by determining the dependence of initial rates on ATP concentration. The data were fit to an equation for competitive inhibition using Kaleidagraph (Synergy Software), or were fit to an equation for competitive tight-binding inhibition using the software KineTic (BioKin, Ltd.). Measured Ki values for known inhibitors against CDK4 and CDK2 agreed with published IC50 values. The specific activity of CDK4 was the same whether complexed to full-length cyclin D3 or the truncated Cyclin D3 construct; both complexes also yielded very similar Ki values for selected inhibitors.

In experiment [3] the target is T2, phosphorylated VEGF-R2Δ50 (FLVK-P) (Homo sapiens, UniProt P35968, DEL940-989/E990V).
T2 construct: VEGF-R2Δ50 contains residues 806-939 and 990-1171; made in house; host or cells: baculovirus/insect cells
The experiment can be described thus: VEGF-R2 coupled spectrophotometric (FLVK-P) assay. The following applies: Table 3; at 1 μM. From the text:
VEGF-R2 Construct for Assay: This construct determines the ability of a test compound to inhibit tyrosine kinase activity. A construct (VEGF-R2Δ50) of the cytosolic domain of human vascular endothelial growth factor receptor 2 (VEGF-R2) lacking the 50 central residues of the 68 residues of the kinase insert domain was expressed in a baculovirus/insect cell system. Of the 1356 residues of full-length VEGF-R2, VEGF-R2Δ50 contains residues 806-939 and 990-1171, and also one point mutation (E990V) within the kinase insert domain relative to wild-type VEGF-R2. Autophosphorylation of the purified construct was performed by incubation of the enzyme at a concentration of 4 μM in the presence of 3 mM ATP and 40 mM MgCl2 in 100 mM Hepes, pH 7.5, containing 5% glycerol and 5 mM DTT, at 4° C. for 2 h. […] See Parast et al., Biochemistry, 37, 16788-16801 (1998).
Coupled Spectrophotometric (FLVK-P) Assay
The production of ADP from ATP that accompanies phosphoryl transfer was coupled to oxidation of NADH using phosphoenolpyruvate (PEP) and a system having pyruvate kinase (PK) and lactic dehydrogenase (LDH). The oxidation of NADH was monitored by following the decrease of absorbance at 340 nm (e340=6.22 cm^−1 mM^−1) using a Beckman DU 650 spectrophotometer. Assay conditions for phosphorylated VEGF-R2Δ50 (indicated as FLVK-P in the tables below) were the following: 1 mM PEP; 250 μM NADH; 50 units of LDH/mL; 20 units of PK/mL; 5 mM DTT; 5.1 mM poly(E4Y1); 1 mM ATP; and 25 mM MgCl2 in 200 mM Hepes, pH 7.5. Assay conditions for unphosphorylated VEGF-R2Δ50 (indicated as FLVK in the tables) were the following: 1 mM PEP; 250 μM NADH; 50 units of LDH/mL; 20 units of PK/mL; 5 mM DTT; 20 mM poly(E4Y1); 3 mM ATP; and 60 mM MgCl2 and 2 mM MnCl2 in 200 mM Hepes, pH 7.5. Assays were initiated with 5 to 40 nM of enzyme. Ki values were determined by measuring enzyme activity in the presence of varying concentrations of test compounds. The data were analyzed using Enzyme Kinetic and Kaleidagraph software.

As a reminder, the inhibition is the percentage by which the read-out fell short of the control. The term Ki denotes a measure of affinity in units of concentration, obtained from inhibition or displacement.

Molecules are shown by their SMILES.

T2 sequence (P35968 with tags, fused parts or gaps DEL940-989/E990V limits assumed): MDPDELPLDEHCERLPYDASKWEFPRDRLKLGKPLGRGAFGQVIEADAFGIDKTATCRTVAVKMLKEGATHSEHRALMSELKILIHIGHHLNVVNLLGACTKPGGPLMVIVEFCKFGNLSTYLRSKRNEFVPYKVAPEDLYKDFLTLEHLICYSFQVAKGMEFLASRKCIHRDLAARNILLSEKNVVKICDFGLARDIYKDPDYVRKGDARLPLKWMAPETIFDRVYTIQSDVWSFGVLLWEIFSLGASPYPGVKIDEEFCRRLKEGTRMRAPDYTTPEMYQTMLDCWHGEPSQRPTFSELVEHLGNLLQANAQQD

Regarding `COc1cc(Nc2nc(N)c(-c3nc(-c4c(Cl)cc(C(F)(F)F)cc4Cl)cs3)s2)cc(OC)c1OC`, the “CHK1^b” value in experiment [1] is 26.2. Further, the “CDK2^c” value in experiment [2] is recorded as −6.
For `COc1cc(Nc2nc(N)c(-c3nc(-c4ccc(C(F)(F)F)cc4)cs3)s2)cc(OC)c1OC`, in that order: 8.5 and 13.9.
For `COc1cc(Nc2nc(N)c(-c3nc(-c4csc5ccccc45)cs3)s2)cc(OC)c1OC`, in that order: 13.2 and 9.1.
For `CCCCCc1ccc(-c2csc(-c3sc(Nc4cc(OC)c(OC)c(OC)c4)nc3N)n2)cc1`, in experiment [1], the “CHK1^b” value amounted to 8.9. The “CDK2^c” value in experiment [2] was 11.3.
Taken in the same sequence, the figures for `COc1cc(Nc2nc(N)c(-c3nc(-c4ccc(O)c(O)c4)cs3)s2)cc(OC)c1OC` [drawing 325] were 47.7 and −10.3.
As to `COc1cc(Nc2nc(N)c(-c3nc(-c4ccc(F)c(F)c4)cs3)s2)cc(OC)c1OC`, in experiment [1], the “CHK1^b” value is given as 16.5. Also, the “CDK2^c” value in experiment [2] is −5.
Taken in the same sequence, the figures for `CCOC(=O)c1cc(-c2csc(-c3sc(Nc4cc(OC)c(OC)c(OC)c4)nc3N)n2)on1` were 2.7 and 23.2.
For `COc1cc(Nc2nc(N)c(-c3nc(-c4ccc(O)cc4)cs3)s2)cc(OC)c1OC` [drawing 352], in that order: 48.3 and 3.
Taken in the same sequence, the figures for `COc1cc(Nc2nc(N)c(-c3nc(-c4ccccc4)cs3)s2)cc(OC)c1OC` [drawing 358] were 21.1 and −0.2.
With `COc1cc(Nc2nc(N)c(-c3nc(-c4ccc(F)cc4F)cs3)s2)cc(OC)c1OC` [drawing 382], in experiment [1], the “CHK1^b” value is recorded as 32.5. In addition, the “CDK2^c” value in experiment [2] is on record as −12.1.
On to `COc1ccc2nc(-c3ccccc3)cc(-c3csc(-c4sc(Nc5cc(OC)c(OC)c(OC)c5)nc4N)n3)c2c1`, for which, in experiment [1], the “CHK1^b” value is reported as 21.6. Besides, the “CDK2^c” value in experiment [2] is on record as −2.7.
For `COc1cc(Nc2nc(N)c(-c3nc(-c4ccc(Cl)cc4Cl)cs3)s2)cc(OC)c1OC`, in that order: 31.3 and 3.8.
Regarding `COc1cc(Nc2nc(N)c(-c3nc(-c4c(Cl)c(Cl)nc(Cl)c4Cl)cs3)s2)cc(OC)c1OC`, the “CHK1^b” value in experiment [1] is 48.8. Besides, in experiment [2], the “CDK2^c” value turned out to be 10.3.
Taken in the same sequence, the figures for `COc1cc(Nc2nc(N)c(-c3nc(-c4ccccc4[N+](=O)O)cs3)s2)cc(OC)c1OC` were 36.6 and 1.9.
For `COc1cc(Nc2nc(N)c(-c3nc(-c4ccc(-c5ccc(Cl)cc5Cl)o4)cs3)s2)cc(OC)c1OC`, in that order: 23 and 12.4.
For `COc1cc(Nc2nc(N)c(-c3nc(-c4ccc(OC(=O)c5ccccc5)cc4)cs3)s2)cc(OC)c1OC`, in that order: 22.3 and 14.6.
Regarding `COc1ccccc1-c1csc(-c2sc(Nc3cc(OC)c(OC)c(OC)c3)nc2N)n1`, in experiment [1], the “CHK1^b” value amounted to 20. Moreover, the “CDK2^c” value in experiment [2] is listed as −3.5.
Taken in the same sequence, the figures for `COc1cc(Nc2nc(N)c(-c3nc(-c4cc(C)c(O)c(C)c4)cs3)s2)cc(OC)c1OC` were 27.9 and 28.4.
Taken in the same sequence, the figures for `COc1cc(Nc2nc(N)c(-c3nc(-c4ccccc4OC(=O)c4ccccc4)cs3)s2)cc(OC)c1OC` were 0.5 and 4.6.
For `COc1cc(Nc2nc(N)c(-c3nc(-c4sc5ccc(Cl)cc5c4C)cs3)s2)cc2c1OCCO2` [drawing 361], in that order: 48.7 and 7.3.
Turning to `COc1cccc(-c2csc(-c3sc(Nc4cc(OC)c(OC)c(OC)c4)nc3N)n2)c1`, the “CHK1^b” value in experiment [1] is 21.2. In experiment [2], the “CDK2^c” value is −0.4.
As to `Nc1nc(Nc2ccc(S(N)(=O)=O)cc2)sc1-c1nc(C(=O)O)cs1` [N(1)], testing at 1 µM in experiment [3] gave an inhibition of 24%. The compound further registered an inhibition at 25 µM in experiment [1] (Table 3, at 25 μM) below 0%. Also, in experiment [2] (Table 3), the inhibition constant (Ki) was 2700 nM.
As to `COc1cc(Nc2nc(N)c(-c3nc(-c4ccc(F)cc4)cs3)s2)cc(OC)c1OC`, in experiment [1], the “CHK1^b” value was 48.3. In experiment [2], the “CDK2^c” value was 35.
Turning to `COc1cc(Nc2nc(N)c(-c3nc(-c4ccc5c(c4)CCC(=O)N5)cs3)s2)cc2c1OCCO2`, the “CHK1^b” value in experiment [1] is recorded as 31.9. For the same compound, in experiment [2], the “CDK2^c” value is on record as −7.8.
For `COc1cc(Nc2nc(N)c(-c3nc(-c4ccc([N+](=O)[O-])cc4)cs3)s2)cc(OC)c1OC`, in that order: 15.2 and −14.4.
Taken in the same sequence, the figures for `COc1cc(Nc2nc(N)c(-c3nc(-c4cc5cc(Cl)ccc5o4)cs3)s2)cc2c1OCCO2` were 25.4 and −6.
